This note sets out measurements from article PMC6445163, “Design, synthesis, and evaluation of novel 2-phenylpropionic acid derivatives as dual COX inhibitory-antibacterial agents” (Journal of Enzyme Inhibition and Medicinal Chemistry, 2017).

Bounds are passed on as bounds.

For one data set, the target named is T1, COX-2 (Homo sapiens, UniProt P35354).
T1 construct: purchased Biovision K547-100
T1 sequence (P35354 18-604): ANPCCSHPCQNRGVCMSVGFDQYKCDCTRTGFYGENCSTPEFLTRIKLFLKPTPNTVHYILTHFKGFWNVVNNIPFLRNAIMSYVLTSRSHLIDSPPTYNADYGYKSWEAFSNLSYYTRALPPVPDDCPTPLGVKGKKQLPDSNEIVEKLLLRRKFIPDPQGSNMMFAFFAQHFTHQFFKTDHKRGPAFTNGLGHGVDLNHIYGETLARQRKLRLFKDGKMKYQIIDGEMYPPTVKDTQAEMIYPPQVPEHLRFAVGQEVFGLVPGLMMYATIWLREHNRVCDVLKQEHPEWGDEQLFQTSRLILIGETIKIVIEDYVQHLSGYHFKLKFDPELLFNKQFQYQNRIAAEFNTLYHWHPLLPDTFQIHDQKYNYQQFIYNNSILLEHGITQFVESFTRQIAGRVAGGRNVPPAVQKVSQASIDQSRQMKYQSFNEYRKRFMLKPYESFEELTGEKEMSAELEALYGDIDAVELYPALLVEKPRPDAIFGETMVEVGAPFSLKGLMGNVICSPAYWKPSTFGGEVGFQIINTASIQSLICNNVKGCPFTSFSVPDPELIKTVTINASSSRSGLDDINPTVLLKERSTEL
The experiment in a line: fluorometric COX-2 inhibitor screening kit assay. The settings on record: 25 °C. The data set is classed as biochemical. Here is the method: Inhibitory potency of the compounds against COX-1 and COX-2 enzymes was determined using fluorometric COX-1 and COX-2 inhibitor screening kits (Biovision, Zurich, Switzerland). Experimental protocol was followed as described in the guides of the supplier[47]^,[48]. All of the pipettings in the assay were performed by Biotek Precision robotic system (BioTek Instruments, Inc., Winooski, VT). […] Appropriate two points (T1 and T2) in the linear range of the plot were chosen, and the corresponding fluorescence values (RFU1 and RFU2) were obtained. The slope for all samples, including enzyme control (EC), by dividing the net ΔRFU (RFU2–RFU1) values by the time ΔT (T2–T1) were calculated by using following equation: % Relative inhibition=(Slope of EC-Slope of S/Slope of EC)×100
This initial in vitro assay was done with two concentrations (10^−3 and 10^−4 M) for all compounds. […] The IC50 value was calculated from the plots of enzyme activity against concentrations by applying regression analyses on GraphPad Prism Version 5 (GraphPad Software, La Jolla, CA).
Selectivity indexes (SI) were expressed as IC50 (COX-1)/IC50 (COX-2). Selectivity toward COX-2 decreases as the corresponding SI decreases while selectivity toward COX-1 isoform increases as the corresponding SI decreases.

Another data set is described as follows: MTT cytotoxicity test. The conditions noted are these: mouse, NIH/3T3 mouse embryonic fibroblast cells. On the procedure: (§1) NIH/3T3 cells were incubated according to the supplier’s recommendations. NIH/3T3 cells were seeded at 1 × 10^4 cells into each well of 96-well plates. MTT assay was performed as previously described[51]^,[52].
(§2) There are a number of requirements to be fulfilled for successful new drug development. […] This assay is based upon the reduction of yellow MTT dye by metabolically active eukaryotic and prokaryotic cells to form the purple formazan product. The assay is generally used to examine cell viability and to estimate cell culture growth[66]^,[67].
For orientation: Tetrazolium dyes change colour on reduction, which living cells bring about.

Data set [1] concerns NIH/3T3 mouse embryonic fibroblast cell line. Put plainly: MTT cytotoxicity test. On the procedure: as §1, §2
In data set [2] the target is T2, COX-1 (Ovis aries, UniProt P05979).
T2 construct: purchased Biovision K548-100
T2 sequence (P05979 25-600): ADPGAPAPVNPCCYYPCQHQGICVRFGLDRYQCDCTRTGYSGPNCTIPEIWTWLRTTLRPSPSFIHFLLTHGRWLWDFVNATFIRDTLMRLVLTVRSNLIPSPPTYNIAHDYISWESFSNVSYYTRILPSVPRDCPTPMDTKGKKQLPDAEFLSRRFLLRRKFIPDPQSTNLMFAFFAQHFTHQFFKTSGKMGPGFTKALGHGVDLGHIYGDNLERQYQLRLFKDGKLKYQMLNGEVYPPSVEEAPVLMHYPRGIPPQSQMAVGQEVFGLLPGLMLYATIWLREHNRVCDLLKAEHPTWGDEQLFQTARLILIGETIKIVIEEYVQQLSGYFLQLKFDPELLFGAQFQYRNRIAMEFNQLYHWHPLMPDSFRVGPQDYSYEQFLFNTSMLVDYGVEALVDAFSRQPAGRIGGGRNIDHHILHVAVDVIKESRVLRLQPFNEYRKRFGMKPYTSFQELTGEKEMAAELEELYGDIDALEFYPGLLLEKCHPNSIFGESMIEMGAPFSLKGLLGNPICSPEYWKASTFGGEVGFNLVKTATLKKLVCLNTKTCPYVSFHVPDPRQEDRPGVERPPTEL
Put plainly: enzyme kinetics (Lineweaver-Burk), arachidonic acid substrate. The data set is classed as biochemical. The conditions noted are these: for mode of inhibition: Lineweaver-Burk plot analysis; for Ki: secondary plot of slope versus inhibitor concentration, read-out: Ki (steady-state inhibition constant). Here is the method: The mode of inhibition was determined by following the Lineweaver–Burk double reciprocal plot analysis of the data and calculated as per the Michaelis–Menten kinetics. To understand the possible mode of action, Km and Vmax were also calculated. The slopes of the Lineweaver–Burk plots were plotted versus the inhibitor concentration, and the Ki values were determined from the x-axis intercept as inhibition constant − Ki. […] The kinetic parameters of this study were determined based on Michaelis–Menten equation followed by a Lineweaver–Burk double reciprocal analysis of data set regarding […] versus 1/[S] plot.

For data set [3], the target named is T2, COX-1. The experiment in a line: fluorometric COX-1 inhibitor screening kit assay. The data set is classed as biochemical. The conditions noted are these: for SI (selectivity index): IC50 (COX-1)/IC50 (COX-2); for IC50: fluorometric kit, 25 °C; for Selectivity: isoform preferred according to SI.

What is called IC50 is the concentration at which inhibition is half-maximal. Read a low IC50 as higher potency. A word on the Ki: it is a dissociation constant, usually derived from enzyme kinetics or from competition with a known ligand.

As for `COc1ccc2sc(SCc3ccc(C(C)C(=O)O)cc3)nc2c1` (stereo not drawn) [Compound 6h, 2-(4-(((5-Methoxybenzo[d]thiazol-2-yl)thio)methyl)phenyl)propanoic acid], at COX-2, half-maximal inhibition (IC50) required 2.96 µM. In “MTT cytotoxicity test”, this compound yielded an IC50 of at least 1000 µM. Besides, the “fold by which IC50 against COX enzymes is lower than IC50 against NIH/3T3 cells” value in data set [1] is on record as “about 500 fold”. In addition, on COX-1 [2], the “Vmax value of the competitive inhibition” value is reported as 0.830 ± 0.011 nmol/min/mg protein, the mode of inhibition result is “competitive” and the inhibition constant Ki was 2.07 µM. At COX-1 [3], the “SI (selectivity index)” value came to 0.59, it took 1.76 µM to reach half-maximal inhibition (IC50) and the Selectivity entry is listed as “COX-1”.

On to `COc1ccc2[nH]c(SCc3ccc(C(C)C(=O)O)cc3)nc2c1` (stereo not drawn) [Compound 6l, 2-(4-(((5-Methoxy-1H-benzo[d]imidazol-2-yl)thio)methyl)phenyl)propanoic acid], for which the IC50 against COX-2 is 2.34 µM. The IC50 in “MTT cytotoxicity test” was at least 1000 µM. In data set [1], the “fold by which IC50 against COX enzymes is lower than IC50 against NIH/3T3 cells” value is “about 500 fold”. Further, on COX-1 [2], the “Vmax value of the competitive inhibition” value worked out at 0.669 ± 0.003 nmol/min/mg protein, the mode of inhibition entry is “competitive” and the Ki turned out to be 1.7 µM. For the same compound, at COX-1 [3], the “SI (selectivity index)” value is given as 0.60, the IC50 came out at 1.4 µM and the Selectivity result is “COX-1”.
